This is an account of results in US5356916A, “1,2,4-oxadiazole derivatives having monoamine oxidase B enzyme-inhibitory activity” (Wakamoto Pharmaceutical Co., Ltd., priority 1991, dated 1994).

One assay relates to Parkinson's disease. As to conditions: United States and Europe; cited from earlier work.
The next assay deals with T1, MAO-A (Rattus norvegicus, UniProt P21396).
T1 construct: mitochondria prepared from the liver of rats; from tissue; host or cells: rat liver mitochondria
T1 sequence (P21396 1-526): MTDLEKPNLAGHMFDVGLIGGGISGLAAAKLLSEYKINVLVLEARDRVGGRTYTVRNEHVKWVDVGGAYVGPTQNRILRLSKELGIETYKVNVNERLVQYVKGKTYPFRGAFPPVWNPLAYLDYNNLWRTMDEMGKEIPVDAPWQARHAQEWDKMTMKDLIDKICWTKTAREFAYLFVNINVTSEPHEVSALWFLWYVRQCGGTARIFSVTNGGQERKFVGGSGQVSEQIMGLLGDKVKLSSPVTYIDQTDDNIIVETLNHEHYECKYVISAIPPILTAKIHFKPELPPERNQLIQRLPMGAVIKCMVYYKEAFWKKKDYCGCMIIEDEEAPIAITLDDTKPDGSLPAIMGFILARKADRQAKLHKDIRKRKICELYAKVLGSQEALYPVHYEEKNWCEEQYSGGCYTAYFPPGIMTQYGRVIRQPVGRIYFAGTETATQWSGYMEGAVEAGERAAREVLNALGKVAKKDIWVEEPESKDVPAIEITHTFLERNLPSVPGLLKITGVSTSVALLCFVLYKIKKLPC
The assay is described as follows: In vitro inhibition of monoamine oxidase A (oxygen electrode, rat liver mitochondria, substrate serotonin). It counts as biochemical. The following applies: rat liver mitochondria, 37° C., preincubated, substrate serotonin (5-HT); read-out: IC50 MAO-A. The method, then:
(§1) The MAO-inhibitory activity of the compounds of the present invention was determined according to an MAO-inhibitory activity determining method using the oxygen electrode disclosed in K. F. Tipton et al., Biochem. J., 1968,108, pp. 95-99.
(§2) A potassium phosphate buffer solution of mitochondria prepared from the liver of rats was preincubated at 37° C. with or without a compound of the present invention and then a substrate was added to the mixture to thus initiate the reaction at that temperature while the dissolved oxygen-consuming reaction due to MAO activity in the reaction solution was monitored by the oxygen electrode. In this respect, the substrates used were serotonin (5-HT) for the MAO-A activity determination and benzylamine (BA) for the MAO-B activity determination. The MAO-inhibitory activity was evaluated in terms of an IC5.sbsb.0 value which is the concentration of a compound tested required for reducing the rate of oxygen-consuming reaction performed in the presence of the compound to 50% of that of the reaction performed in the absence of the compound.

For a further assay, the target named is T2, MAO-B (Rattus norvegicus, UniProt P19643).
T2 construct: mitochondria prepared from the liver of rats; from tissue; host or cells: rat liver mitochondria
T2 sequence (P19643 1-520): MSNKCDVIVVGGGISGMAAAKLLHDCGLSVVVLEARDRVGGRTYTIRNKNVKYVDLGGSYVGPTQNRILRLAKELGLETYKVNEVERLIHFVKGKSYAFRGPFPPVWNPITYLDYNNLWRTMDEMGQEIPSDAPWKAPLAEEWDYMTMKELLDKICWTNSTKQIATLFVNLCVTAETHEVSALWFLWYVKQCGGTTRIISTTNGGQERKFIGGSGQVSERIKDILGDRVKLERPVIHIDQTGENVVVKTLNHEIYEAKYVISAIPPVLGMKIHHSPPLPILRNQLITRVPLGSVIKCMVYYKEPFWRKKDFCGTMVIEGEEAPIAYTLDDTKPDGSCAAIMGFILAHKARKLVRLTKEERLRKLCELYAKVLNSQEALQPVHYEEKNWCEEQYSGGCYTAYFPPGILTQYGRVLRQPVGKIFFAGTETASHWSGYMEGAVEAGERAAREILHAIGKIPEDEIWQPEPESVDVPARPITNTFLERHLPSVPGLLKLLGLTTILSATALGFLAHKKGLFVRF
The assay can be described thus: In vitro inhibition of monoamine oxidase B (oxygen electrode, rat liver mitochondria, substrate benzylamine). It counts as biochemical. The following applies: for IC50: rat liver mitochondria, 37° C., preincubated, substrate benzylamine (BA), read-out: IC50 MAO-B; for MAO-A/MAO-B: ratio of IC50 values MAO-A/MAO-B. Here is the method:
as §1, §2

Consider `C#CCN(C)C(C)Cc1ccccc1` (racemic) [d,l-Deprenil], for which the “clinical effectiveness in Parkinson's disease (in words)” value in the assay with Parkinson's disease is recorded as “effectiveness of this compound has clinically been proved”.

As usually defined, the IC50 is the concentration that gives 50% inhibition. Take `Cc1nc(-c2ccc(OCc3ccncc3)cc2)no1` [Example 27, 3-[4-(4-pyridylmethyloxy)phenyl]-5-methyl-1,2,4-oxadiazole]: the IC50 on MAO-A came out at 160 µM. For the same compound, on MAO-B, the IC50 is 25 µM and the MAO-A/MAO-B is recorded as 6.4.

Turning to `CCCOc1ccc(-c2noc(C)n2)cc1` [Example 28, 3-(4-propoxy)phenyl-5-methyl-1,2,4-oxadiazole], on MAO-A, the IC50 came out at 18 µM. Moreover, at MAO-B, the IC50 turned out to be 25 µM and the MAO-A/MAO-B is listed as 0.7.

As to `Cc1nc(-c2ccc(OCCCc3ccccc3)cc2)no1` [Example 29, 3-[4-(3-phenylpropoxy)phenyl]-5-methyl-1,2,4-oxadiazole], the IC50 at MAO-A came out at 110 µM; on MAO-B, 22 µM. For the same compound, the MAO-A/MAO-B at MAO-B turned out to be 5.

Consider `Cc1nc(-c2ccc(OCc3ccccc3)cc2)no1` [Example 30, 3=(4-benzyloxy)phenyl-5-methyl-1,2,4-oxadiazole], for which the IC50 on MAO-A turned out to be 50 µM. For the same compound, at MAO-B, the IC50 stood at 4.8 µM and the MAO-A/MAO-B was 10.

`Cc1nc(-c2ccc(OCc3cccc(Cl)c3)cc2)no1` [Example 31, 3-[4-(3-chlorobenzyloxy)phenyl]-5-methyl-1,2,4-oxadiazole]: on MAO-A, the IC50 was 200 µM. Besides, on MAO-B, the IC50 worked out at 3 µM and the MAO-A/MAO-B is on record as 67.

Regarding `CNc1nc(-c2ccc(OCCCn3ccnc3)cc2)no1` [Example 32, 3-[4-[3-(1H-imidazol-1-yl)propoxy]phenyl]-5-methyl-amino-1,2,4-oxadiazole], the IC50 at MAO-A is 110 µM. Further, on MAO-B, the IC50 was 1.2 µM and the MAO-A/MAO-B was 92.

As for `CNc1nc(-c2ccc(OCc3ccccc3)cc2)no1` [Example 33, 3-(4-benzyloxyphenyl)-5-methylamino-1,2,4-oxadiazole], the results for the IC50 at MAO-A and at MAO-B were 100 µM and 7 µM, respectively. For the same compound, at MAO-B, the MAO-A/MAO-B stood at 14.
